Laboratory results taken from PubChem BioAssay (NCI).
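The compound was tested at five concentrations on cells cultured in 96-well plates, with a 48-hour exposure period. At the GI50, growth is halved. TGI: concentration producing complete growth inhibition.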

Columns and labels:
Experiment in all cases: NCI-60 cell line screen, 48 h
786-0 renal = tested on: 786-0 renal
OVCAR-5 ovarian = tested on: OVCAR-5 ovarian
UACC-62 melanoma = tested on: UACC-62 melanoma
HCT-116 colon = tested on: HCT-116 colon
OVCAR-8 ovarian = tested on: OVCAR-8 ovarian
BT-549 breast = tested on: BT-549 breast
ACHN renal = tested on: ACHN renal
RPMI-8226 leukemia = tested on: RPMI-8226 leukemia
SNB-75 CNS = tested on: SNB-75 CNS
HOP-92 NSCLC = tested on: HOP-92 NSCLC
A498 renal = tested on: A498 renal
HCT-15 colon = tested on: HCT-15 colon
SK-MEL-5 melanoma = tested on: SK-MEL-5 melanoma
SNB-19 CNS = tested on: SNB-19 CNS
UACC-257 melanoma = tested on: UACC-257 melanoma
RXF 393 renal = tested on: RXF 393 renal
NCI-H522 lung = tested on: NCI-H522 lung
HCC-2998 colon = tested on: HCC-2998 colon

SMILES | TGI (786-0 renal) [µM] | TGI (OVCAR-5 ovarian) [µM] | TGI (UACC-62 melanoma) [µM] | TGI (HCT-116 colon) [µM] | TGI (OVCAR-8 ovarian) [µM] | TGI (BT-549 breast) [µM] | TGI (ACHN renal) [µM] | TGI (RPMI-8226 leukemia) [µM] | TGI (SNB-75 CNS) [µM] | TGI (HOP-92 NSCLC) [µM] | TGI (A498 renal) [µM] | TGI (HCT-15 colon) [µM] | TGI (SK-MEL-5 melanoma) [µM] | TGI (SNB-19 CNS) [µM] | TGI (UACC-257 melanoma) [µM] | TGI (RXF 393 renal) [µM] | TGI (NCI-H522 lung) [µM] | TGI (HCC-2998 colon) [µM] | GI50 (RPMI-8226 leukemia) [µM]
CC1(C)CC(=O)c2c(nc3ccc4ccccc4c3c2-c2ccc(NC(=O)CCCC(=O)Nc3ccc(-c4c5c(nc6ccc7ccccc7c46)CC(C)(C)CC5=O)cc3)cc2)C1 | > 100 | > 100 | > 100 | > 100 | > 100 | > 100 | > 100 | > 100 | > 100 | > 100 | > 100 | > 100 | > 100 | > 100 | > 100 |  |  |  | 
Cc1c(/C=N/NC(=S)Nc2ccccc2Cl)c(=O)n(-c2ccccc2)n1C | 50 | > 100 | > 100 | > 100 | 84.1 | > 100 |  | > 100 | 54.6 |  | > 100 | > 100 | > 100 | > 100 | > 100 | 47.9 | 60.9 |  | 
COc1ccc(NS(=O)CCCc2ccccc2)cc1 (stereo unspecified) | > 100 | > 100 | > 100 | > 100 | > 100 | > 100 | > 100 | > 100 |  |  |  | > 100 | > 100 | > 100 | > 100 |  | > 100 |  | 
Cc1cc(=O)[nH]c(NN2C(Cl)C(=O)C2c2ccc(Cl)cc2)n1 (stereo unspecified) | 33 | > 60.4 | 39.9 | 31.1 | 56.5 | 86.9 | > 56.4 | 33.1 | 42.5 | 27.7 | 53.6 | > 53.8 | 25.7 | 45.2 | > 55.1 | 45.1 |  | 32.1 | 
O=c1cc(-c2cccc(Cl)c2)[nH]c2ncccc12 | 14.5 | > 100 | > 100 | 1.17 | > 100 | > 100 | > 100 |  | > 56.1 | > 100 | > 100 | > 100 | 1.92 | 24.1 | > 100 | 40.1 | 0.914 |  | 
Cc1ccc(/C=N/Nc2cnccn2)s1 | > 100 | > 100 | > 100 | > 100 | > 100 | > 100 | > 100 | > 100 | > 100 | > 100 |  | > 100 | > 100 | > 100 | > 100 | > 100 | > 100 | > 100 | 
O=C(NNC1=NCCN1)c1ccco1 | > 100 | > 100 | > 100 | > 100 | > 100 | > 100 | > 100 | > 100 | > 100 | > 100 |  | > 100 | > 100 | > 100 | > 100 | > 100 | > 100 | > 100 | 
COC(=O)C1C(OC(=O)c2ccccc2)CC2CCC1N2C(N)=O (stereo unspecified) | > 100 | > 100 | > 100 | > 100 | > 100 | > 100 | > 100 | > 100 | > 100 | > 100 | > 100 | > 100 | > 100 | > 100 | > 100 |  | > 100 | > 100 | 
CC1CC[C@@H](C(C)C)[C@H](Oc2nnc(C3OC(CO)C(O)C3O)o2)C1 (stereo partly specified) | > 100 | > 100 | > 100 | > 100 | > 100 | > 100 | > 100 | > 100 | > 100 | > 100 | > 100 | > 100 | > 100 | > 100 | > 100 | > 100 |  | > 100 | 
COc1ccc(-c2c(N)n(-c3nc4ccccc4s3)c(=O)c3cc([N+](=O)[O-])ccc23)cc1 | 16.2 | 56.7 | > 100 | > 100 | 23.2 | > 100 | 69.9 | > 100 | 24.7 | > 100 | > 100 | > 100 |  | > 100 | > 100 | 30.9 | 23.5 |  | 
C1=NCCNCCN=Cc2ccc(cc2)OCc2cccc(n2)COc2ccc1cc2 | > 100 | > 100 | > 100 | > 100 | > 100 | > 100 | 68.7 | > 100 | > 100 | > 100 | > 100 | > 100 | > 100 | > 100 | > 100 | > 100 | > 100 |  | 
CC(=O)OCC(OC(C)=O)C(OC(C)=O)C(C=NN(C(C)=O)S(=O)(=O)c1ccc(/C=C2\NC(=O)NC2=O)cc1)OC(C)=O (stereo unspecified) | > 100 | > 100 | > 100 | > 100 | > 100 | > 100 | > 100 | > 100 | > 100 |  | > 100 | > 100 | > 100 | > 100 | > 100 | > 100 |  | > 100 | > 100
O=C(CN1CCNCCN(CC(=O)N2CCCCC2)CCNCC1)N1CCCCC1 | > 100 | > 100 | > 100 | > 100 | > 100 | > 100 | > 100 | > 100 | > 100 | > 100 | > 100 | > 100 | > 100 | > 100 | > 100 |  | > 100 |  | 
CSc1nc(N)c(NC2OC(CO)C(O)C2O)c(=O)[nH]1 (stereo unspecified) | > 100 | > 100 | > 100 | > 100 | > 100 | > 100 |  | > 100 | > 100 |  | > 100 | > 100 | > 100 | > 100 | > 100 | > 100 | > 100 |  | 
CN(C(=O)Cc1cc(Cl)c(Cl)cc1N=C=S)[C@H]1CCCC[C@@H]1N1CCCC1 | 25.5 | 31.7 | 30.3 | 21.7 | 28.8 | 29.5 | 28.7 | 28 | 27.9 | 21.9 | 27 | 29.1 | 27.8 | 27.4 | 28 | 13.1 | 27.7 |  | 
CN(C)c1ccc(N=Nc2ccc3nc[nH]c3c2)cc1 | 36.1 | 70.4 | 48.7 | 38.8 | > 100 | > 100 | 37.6 | 59.2 | 68.9 |  | 41.5 | 70.4 | > 100 | > 100 | 59.5 | 88.7 | 51.1 |  | 
O=C(Cn1c2c(c3ccccc31)CCCC2)NC1CCCCC1 | > 100 | > 100 | > 100 | > 100 | > 100 | > 100 | > 100 | > 100 |  |  | > 100 | > 100 | > 100 | > 100 | > 100 |  |  | > 100 | 
O=C(NCCCCCCCCNC(=O)c1cc(-c2ccccc2)nc2ccccc12)c1cc(-c2ccccc2)nc2ccccc12 | > 100 | > 100 | > 100 | > 100 | > 100 | > 100 | > 100 | > 100 | > 100 | > 100 | > 100 | > 100 | > 100 | > 100 | > 100 | 84.4 | > 100 |  | 
COc1ccc(N2C(=O)C3c4[nH]c5ccc(C)cc5c4C4CCC(C)CC4C3C2=O)cc1 (stereo unspecified) | > 100 | > 100 | > 100 | > 100 | > 100 | > 100 | > 100 | > 100 |  | > 100 | 85 | > 100 | > 100 | > 100 | > 100 | 58.6 | > 100 |  | 
CC(C)[C@@H]1NC(=O)[C@H]2N=C(O[C@@H]2C)[C@@H]2CCCN2C(=O)[C@H](Cc2ccccc2)NC(=O)[C@@H]2CSC(=N2)[C@@H](Cc2ccccc2)NC(=O)[C@@H]2CSC1=N2 | > 50 | > 50 | > 50 | > 50 | > 50 | > 50 | > 50 | 32.1 | 6.28 |  |  | > 50 | > 50 | > 50 | > 50 | > 50 | > 50 | > 50 | 
Cc1ccc(-c2nc3ccc(Cl)cc3[nH]2)cc1 | > 100 |  | > 100 | > 100 | > 100 | > 100 | > 100 | > 100 | > 100 | > 100 |  | > 100 | > 100 | > 100 | > 100 | > 100 | > 100 | > 100 | 
CC1(CCC2C=CCC2)CCCNC1=S (stereo unspecified) | > 10 | > 10 | > 10 | > 10 | > 10 | > 10 | > 10 | > 10 | > 10 | > 10 | > 10 | > 10 | > 10 | > 10 | > 10 | > 10 |  | > 10 | 
O=c1oc2ccccc2c(Nc2ccc3c(c2)S(=O)(=O)c2ccccc2O3)c1[N+](=O)[O-] | 58.4 | > 100 | 40 | 65 | 78.4 | 70.4 | 70.2 | 59.8 | 52.4 | 55.9 |  | > 100 | 50.1 | > 100 | 58.8 | 51.2 | 42.9 | 52.6 | 
COc1cc(/C=C2/CCS(=O)(=O)c3ccc(C)cc3C2=O)cc(OC)c1OC | > 35.4 | 25.4 | 16.8 | 11.2 | 11.5 | > 26.3 | 14.2 | 6.6 | 30 | > 43.2 | 23.7 | > 39 | > 38.3 | > 34.8 | > 42.7 |  | 12.4 | > 35.7 | 
Cc1n[nH]c(=O)c2cc(-c3ccccc3)[nH]c12 | > 100 | > 100 | > 100 | > 100 | > 100 | > 100 | > 100 | > 100 | > 100 | > 100 | 92.3 | > 100 | > 100 | > 100 | > 100 | > 100 |  | > 100 | 
COC(=O)[C@@H]1CN(C(=O)CCc2ccccc2)C(=O)N1C(=O)OCc1ccccc1 | > 100 | > 100 | > 100 | > 100 | > 100 |  | > 100 | > 100 | > 100 | > 100 | > 100 | > 100 | > 100 | > 100 | > 100 | > 100 | > 100 | > 100 | 
COc1ccccc1NC(=O)/C(Cc1nc2ccc([N+](=O)[O-])cc2[nH]c1=O)=N\NC(=O)C[N+](C)(C)C | > 100 | > 100 | > 100 | > 100 | > 100 | > 100 | > 100 |  | > 100 | > 100 |  | > 100 | > 100 | > 100 | > 100 | > 100 | > 100 | > 100 | 
NNC(=O)c1ccc(-n2nnc(C(=O)NN)c2C(=O)NN)cc1 | > 100 | > 100 |  | > 100 | > 100 | > 100 | > 100 | > 100 |  | > 100 |  | > 100 | > 100 | > 100 | > 100 |  |  | > 100 | 
